What all share (assay type): cell-based, human
The test system of one experiment is HUVECs. Description: HUVEC migration assay. To be noted: TNFα 20 ng/ml. The method, then: In FIG. 24A ad-null or ad-BRCA1 infected cells were trypsinized and seeded in the presence and absence of TNFα (20 ng/ml) on coated inserts and a colorimetric assay was performed after 24 hours. Migration was calculated as a percentage of ad-null controls. (n=4, **p<0.01). In FIG. 24B, ad-null or ad-BRCA1 infected HUVECs were seeded onto matrigel in the presence or absence of TNFα (20 ng/ml). Images were taken 5 hours after seeding (original magnification 20×). In FIG. 24C data was semi-quantitatively analyzed by counting tubular structures in four fields per group. Data is presented as mean±SD (n=3 in triplicate, *p<0.05, **p<0.01). HUVECs infected with ad-null or ad-BRCA1 were treated for 24 hours with TNFα (20 ng/ml). VCAM1 (FIG. 24D, FIG. 24E), ICAM1 (FIG. 24F, FIG. 24G) and E-selectin (FIG. 24H, FIG. 24I) protein and transcript expression were determined in cell extracts via western blots and real-time PCR, respectively. […] Data are expressed as mean±SD (n=3, **p<0.01).
The migratory function of HUVECs was determined with the CytoSelect™ 24-Well Cell Migration Fluorometric Assay (Cell Biolabs). […] Following 12 hours at 37° C., migratory cells were dissociated from the underside of the insert membrane, lysed and stained with the Lysis Buffer/CyQuant® GR dye solution before being fluorescently quantified. […]

A further experiment relates to eNOS, Akt, VEGFa. Description: eNOS/phospho-eNOS, Akt/phospho-Akt and VEGFa expression in HUVECs. To be noted: TNFα treatment. The method, then: FIGS. 28A through 28E show eNOS/phospho-eNOS, Akt/phospho-Akt and VEGFa protein and RNA expression. Total protein and RNA were extracted from ad-null or ad-BRCA1 infected HUVECs treated thereafter with TNFα for 24 hours. As shown in FIGS. 28A and 28C, TNFα markedly elevated eNOS protein levels in BRCA1-overexpressing cells. […] Data are presented as mean±SEM of three independent experiments (*p<0.05, **p<0.01).
BRCA1 also promoted eNOS, phospho-eNOS, phospho-Akt and VEGFa expression. Since eNOS is essential for endothelial function, the potential regulation of endothelial nitric oxide synthase (eNOS) expression and phosphorylation by BRCA1 was examined via western blot analysis.
Western blot analysis was performed according to standard procedures. Proteins from whole cell lysates of HUVECs were resolved on SDS-polyacrylamide gels and transferred to nitrocellulose membranes (Bio-Rad). Membranes were probed with primary antibodies from Santa Cruz (BRCA1), Cell Signaling (p53, p21, Ser1177-phospho-eNOS, Akt, Ser473-phospho-Akt, cleaved caspase-3), Chemicon (GADD45a, GAPDH) and BD (eNOS). […]
(§1) Total RNA extracted from HUVECs were reverse transcribed for quantitative assessment of VCAM1, ICAM1, E-selectin and VEGFa expressions by real-time PCR using the primer pairs listed in Table 4.

In experiment [1] the test system is VCAM1, ICAM1 and E-selectin. Description: VCAM1, ICAM1 and E-selectin expression in HUVECs, real-time PCR and western blot. The note with it: ad-null treated HUVECs, TNFα 20 ng/ml 24 hours. The method, then:
In FIG. 24A ad-null or ad-BRCA1 infected cells were trypsinized and seeded in the presence and absence of TNFα (20 ng/ml) on coated inserts and a colorimetric assay was performed after 24 hours. Migration was calculated as a percentage of ad-null controls. (n=4, **p<0.01). In FIG. 24B, ad-null or ad-BRCA1 infected HUVECs were seeded onto matrigel in the presence or absence of TNFα (20 ng/ml). Images were taken 5 hours after seeding (original magnification 20×). In FIG. 24C data was semi-quantitatively analyzed by counting tubular structures in four fields per group. Data is presented as mean±SD (n=3 in triplicate, *p<0.05, **p<0.01). HUVECs infected with ad-null or ad-BRCA1 were treated for 24 hours with TNFα (20 ng/ml). VCAM1 (FIG. 24D, FIG. 24E), ICAM1 (FIG. 24F, FIG. 24G) and E-selectin (FIG. 24H, FIG. 24I) protein and transcript expression were determined in cell extracts via western blots and real-time PCR, respectively. GAPDH was used as a loading control for western blots and as a housekeeping gene for real-time PCR. Data are expressed as mean±SD (n=3, **p<0.01).
Western blot analysis was performed according to standard procedures. Proteins from whole cell lysates of HUVECs were resolved on SDS-polyacrylamide gels and transferred to nitrocellulose membranes (Bio-Rad). Membranes were probed with primary antibodies from Santa Cruz (BRCA1), Cell Signaling (p53, p21, Ser1177-phospho-eNOS, Akt, Ser473-phospho-Akt, cleaved caspase-3), Chemicon (GADD45a, GAPDH) and BD (eNOS). Immunoblots were incubated with the appropriate horseradish peroxidase-associated secondary antibodies before signals were visualized by chemiluminescence via the ECL detection system (GE Healthcare).
as §1
PCR reactions were performed on the ABI PRISM 7900HT system (Applied Biosystems) with GAPDH acting as the housekeeping control.

As for TNFα, in the experiment on HUVECs, the “migratory capacity of HUVECs” value is recorded as “significantly hampered”. Besides, the eNOS protein levels result in the experiment on eNOS, Akt, VEGFa is reported as “significant reduction”. In experiment [1], this substance displayed an E-selectin transcript upregulation of 200 times, an ICAM1 transcript upregulation of 400 times and a VCAM1 transcript upregulation of 1500 times.

For the origin of these results see patent US8496928B2, “Method for preventing and treating cardiovascular diseases with BRCA1” (priority 2008, dated 2013).
